Source: US20240050524A1, “DELIVERY OF ABETA VARIANTS FOR AGGREGATION INHIBITION” (Baylor College of Medicine, priority 2020, published 2024)
Entries after “also recorded” stand apart in the source; their conditions may differ.

Tested on: γ-secretase
Assay: Dependence of Aβ release from transfected N2a cells on γ-secretase activity (IP/immunoblot of conditioned media)
Format: cell-based, murine
Details: 'KK' minimal construct; 0.1 or 1 nM
Method: Collection of Aβ peptides from N2a conditioned media. N2a cells were grown in 6 well plates using Dulbecco's modified Eagle's medium (DMEM) (#12-604F, VWR) supplemented with […] penicillin/streptomycin and 10% fetal bovine serum until approximately 90% confluent. […] Twenty-four hours later, cells were washed with 1×Dulbecco's PBS, and a serum-reduced medium consisting of DMEM and 0.2% fetal bovine serum was added before the cells were returned to 5% CO2 at 37° C. Conditioned media was harvested 24 hr later and centrifuged at 10,000 rpm for 5 min at 4° C. (2 ml/well×3 wells per IP reaction). To test the dependence of Aβ release on γ-secretase activity, cells were transfected as above, with the subsequent media replacement including 0.1 or 1 nM of LY411575 (#SML0506, Sigma). Supernatants were collected and supplemented with protease inhibitors (#5892970001, Sigma) and 0.01% NaN3 (#S2002, Sigma) to prevent proteolytic degradation.
Aβ IP from conditioned media for immunoblot. Protein G Dynabeads (50 μl, #10003D, Fisher) were loaded with mouse anti-Aβ antibody 6E10 (1 ug, #SIG-39320, BioLegend, San Diego, CA) for 1 hr at RT. […] Antibody binding was detected using […] secondary antibody conjugated with IRDye, diluted 1:20,000 in block (#26-32210, LI-COR, Lincoln, NE). Blots were imaged with an Odyssey Fc Imager and analyzed with Image Studio software (LI-COR).

In the case of C[C@H](NC(=O)[C@@H](O)c1cc(F)cc(F)c1)C(=O)N[C@@H]1C(=O)N(C)c2ccccc2-c2ccccc21 [LY411575], the “block of Aβ secretion into the media” value is reported as “blocked release of variant Aβ into the media in a concentration-dependent manner; also recorded: blocked in a dose-dependent manner”.
